The values below come from patent US9326985B2, “Heteroaryl pyridone and aza-pyridone amide compounds” (Genentech, Inc., priority 2013, dated 2016).

pIC50, pKi: −log10 of the molar value.

For experiment [1], the system named is CD69 by B lymphocytes in human whole blood activated with goat F(ab')2 anti-human IgM. Put plainly: CD69 Whole Blood Assay (CD69 Hu Blood FACS). It counts as cell-based. As to conditions: Lymphocyte, CD69 positive of CD20 positive cells. On the procedure:
CD69 is a type II C-type lectin involved in lymphocyte migration and cytokine secretion.
Human blood is obtained from healthy volunteers, with the following restrictions: 1 week drug-free, non-smokers. Blood (approximately 20 mls to test 8 compounds) is collected by venipuncture into Vacutainer® (Becton, Dickinson and Co.) tubes with sodium heparin.
Solutions of Formula I compounds at 10 mM in DMSO are diluted 1:10 in 100% DMSO, then are diluted by three-fold serial dilutions in 100% DMSO for a ten point dose-response curve. The compounds are further diluted 1:10 in PBS and then an aliquot of 5.5 μl of each compound is added in duplicate to a 2 ml 96-well plate; 5.5 μl of 10% DMSO in PBS is added as control and no-stimulus wells. Human whole blood—HWB (100 μl) is added to each well. After mixing the plates are incubated at 37° C., 5% CO2, 100% humidity for 30 minutes. Goat F(ab′)2 anti-human IgM (10 μl of a 500 μg/ml solution, 50 μg/ml final) is added to each well (except the no-stimulus wells) with mixing and the plates are incubated for an additional 20 hours. At the end of the 20 hour incubation, samples are incubated with fluorescent labeled antibodies for 30 minutes, at 37° C., 5% CO2, 100% humidity. Include induced control, unstained and single stains for compensation adjustments and initial voltage settings. Samples are then lysed with PharM Lyse™ (BD Biosciences Pharmingen) according to the manufacturer's instructions. Samples are then transferred to a 96 well plate suitable to be run on the BD Biosciences HTS 96 well system on the LSRII machine. Data acquired and Mean Fluorescence Intensity values were obtained using BD Biosciences DIVA Software. Results are initially analyzed by FACS analysis software (Flow Jo).

Experiment [2] deals with T1, full length human wildtype Btk (Homo sapiens, UniProt Q06187).
T1 construct: V5 (C); 6xHis (C); made in house; host or cells: Sf9 insect cells (baculovirus, pFastBac)
Put plainly: Biochemical Btk Assay (BTK LC3K). On the procedure: A generalized procedure for a standard biochemical Btk, Kinase Assay that can be used to test Formula I compounds is as follows. A master mix minus Btk enzyme is prepared containing 1× Cell Signaling kinase buffer (25 mM Tris-HCl, pH 7.5, 5 mM beta-glycerophosphate, 2 mM dithiothreitol, 0.1 mM Na3VO4, 10 mM MgCl2), 0.5 μM Promega PTK Biotinylated peptide substrate 2, and 0.01% BSA. A master mix plus Btk enzyme is prepared containing 1× Cell Signaling kinase buffer, 0.5 μM (micromolar) PTK Biotinylated peptide substrate 2, 0.01% BSA, and 100 ng/well (0.06 mU/well) Btk enzyme. Btk enzyme is prepared as follows: full length human wildtype Btk (accession number NM-000061) with a C-terminal V5 and 6×His tag was subcloned into pFastBac® vector (Invitrogen/Life Technologies) for making baculovirus carrying this epitope-tagged Btk. […] Passage 3 virus is used to infect Sf9 cells to overexpress the recombinant Btk protein. The Btk protein is then purified to homogeneity using Ni-NTA column. […] A solution of 200 μM ATP is prepared in water and adjusted to pH 7.4 with 1N NaOH. A quantity of 1.25 μL (microliter) of compounds in 5% DMSO is transferred to a 96-well ½ area Costar polystyrene plate. Compounds are tested singly and with an 11-point dose-responsive curve (starting concentration is 10 μM; 1:2 dilution). A quantity of 18.75 μL of master mix minus enzyme (as a negative control) and master mix plus enzyme is transferred to appropriate wells in 96-well ½ area costar polystyrene plate. 5 μL of 200 μM ATP is added to that mixture in the 96-well ½ area Costar polystyrene plate for final ATP concentration of 40 μM. The reaction is allowed to incubate for 1 hour at room temperature. The reaction is stopped with Perkin Elmer 1× detection buffer containing 30 mM EDTA, 20 nM SA-APC, and 1 nM PT66 Ab. […] IC50 values are subsequently calculated. Alternatively, the Lanthascreen assay can be used to evaluate Btk activity through quantification of its phosphorylated peptide product. The FRET (Fluorescence Resonance Energy Transfer) that occurs between the fluorescein on the peptide product and the terbium on the detection antibody decreases with the addition of inhibitors of Btk that reduce the phosphorylation of the peptide. In a final reaction volume of 25 uL, Btk (h) (0.1 ng/25 ul reaction) is incubated with 50 mM Hepes pH 7.5, 10 mM MgCl2, 2 mM MnCl2, 2 mM DTT, 0.2 mM NaVO4, 0.01% BSA, and 0.4 uM fluorescein poly-GAT. […] After incubation for 60 minutes at room temperature, the reaction is stopped by the addition of a final concentration of 2 nM Tb-PY20 detection antibody in 60 mM EDTA for 30 minutes at room temperature.

T1 sequence (Q06187 whole entry): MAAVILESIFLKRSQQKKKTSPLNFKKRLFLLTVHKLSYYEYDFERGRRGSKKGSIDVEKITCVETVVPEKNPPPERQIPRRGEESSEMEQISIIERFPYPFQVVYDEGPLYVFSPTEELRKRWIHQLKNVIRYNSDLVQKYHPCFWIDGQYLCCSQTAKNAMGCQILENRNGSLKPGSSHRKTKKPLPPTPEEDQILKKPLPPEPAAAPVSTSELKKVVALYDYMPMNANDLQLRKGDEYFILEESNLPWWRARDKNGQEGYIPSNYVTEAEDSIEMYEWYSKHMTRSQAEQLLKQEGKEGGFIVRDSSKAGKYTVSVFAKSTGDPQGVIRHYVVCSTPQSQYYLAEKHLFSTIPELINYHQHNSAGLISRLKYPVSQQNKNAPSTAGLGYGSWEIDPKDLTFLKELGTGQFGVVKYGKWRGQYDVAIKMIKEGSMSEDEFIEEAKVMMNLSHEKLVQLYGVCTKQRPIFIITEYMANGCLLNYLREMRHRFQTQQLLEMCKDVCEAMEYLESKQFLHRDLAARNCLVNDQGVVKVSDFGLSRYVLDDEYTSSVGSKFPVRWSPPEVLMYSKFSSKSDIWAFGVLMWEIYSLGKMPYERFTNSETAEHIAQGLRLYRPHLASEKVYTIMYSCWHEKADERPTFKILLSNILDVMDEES

For the molecule `Cn1cc(-c2cccc(N3CCc4c(cc5n4CCCC5)C3=O)c2CO)cc(NC(=O)C2CC2)c1=O` [Compound 139, N-[5-[2-(hydroxymethyl)-3-(1-oxo-3,4,6,7,8,9-hexahydropyrido[3,4-b]indolizin-2-yl)phenyl]-1-methyl-2-oxo-3-pyridyl]cyclopropanecarboxamide], in experiment [1] (Table 2, anti-IgM stimulation), the pIC50 was 6.16. The pKi in experiment [2] (Table 2) is 8.11.

In the case of `CN1CC[C@@]2(C[C@@H]2C(=O)Nc2cc(-c3ccnc(-n4ncc5cc(C(C)(C)C)cc(F)c5c4=O)c3CO)cn(C)c2=O)C1` (single isomer, unassigned) [Compound 174], the pIC50 in experiment [1] (Table 2, anti-IgM stimulation) was 5.82. The same molecule had a pKi in experiment [2] (Table 2) of 8.14.

Consider `C[C@@H]1C[C@H]1C(=O)Nc1cc(-c2ccnc(N3CCn4c(cc5c4CC(C)(C)C5)C3=O)c2CO)cn(C)c1=O` [Compound 138, (1R,2R)—N-[5-[2-(7,7-dimethyl-4-oxo-1,2,6,8-tetrahydrocyclopenta[3,4]pyrrolo[3,5-b]pyrazin-3-yl)-3-(hydroxymethyl)-4-pyridyl]-1-methyl-2-oxo-3-pyridyl]-2-methyl-cyclopropanecarboxamide], for which the pIC50 in experiment [1] (Table 2, anti-IgM stimulation) is 5.59. In experiment [2] (Table 2), the pKi was 7.36.

As for `Cn1cc(-c2ccnc(N3CCn4c(cc5c4CC(C)(C)C5)C3=O)c2CO)cc(NC(=O)[C@H]2CC23CCC3)c1=O` (single isomer, unassigned) [Compound 147], the pIC50 in experiment [1] (Table 2, anti-IgM stimulation) was 6.04. This molecule also gave a pKi in experiment [2] (Table 2) of 8.32.

Turning to `Cn1cc(-c2ccnc(N3CCn4c(cc5c4CC(C)(C)C5)C3=O)c2CO)cc(NC(=O)c2cnco2)c1=O` [Compound 115, N-[5-[2-(7,7-dimethyl-4-oxo-1,2,6,8-tetrahydrocyclopenta[3,4]pyrrolo[3,5-b]pyrazin-3-yl)-3-(hydroxymethyl)-4-pyridyl]-1-methyl-2-oxo-3-pyridyl]oxazole-5-carboxamide], in experiment [1] (Table 1, anti-IgM stimulation), the pIC50 was below 5.49. In addition, in experiment [2] (Table 1), the pKi was below 6.30.

`COCC(=O)Nc1cc(-c2ccnc(-n3ncc4cc(C(C)(C)C)cc(F)c4c3=O)c2CO)cn(C)c1=O` [Compound 156, N-[5-[2-(6-tert-butyl-8-fluoro-1-oxo-phthalazin-2-yl)-3-(hydroxymethyl)-4-pyridyl]-1-methyl-2-oxo-3-pyridyl]-2-methoxy-acetamide] gave a pIC50 in experiment [1] (Table 2, anti-IgM stimulation) below 5.35. The molecule further had a pKi in experiment [2] (Table 2) of 7.68.

`Cn1cc(-c2ccnc(N3CCn4c(cc5c4CC(C)(C)C5)C3=O)c2CO)cc(NC(=O)C2CC2(F)F)c1=O` (stereo not shown) [Compound 116, N-[5-[2-(7,7-dimethyl-4-oxo-1,2,6,8-tetrahydrocyclopenta[3,4]pyrrolo[3,5-b]pyrazin-3-yl)-3-(hydroxymethyl)-4-pyridyl]-1-methyl-2-oxo-3-pyridyl]-2,2-difluoro-cyclopropanecarboxamide] showed a pIC50 in experiment [1] (Table 1, anti-IgM stimulation) of 6.01. This molecule also gave a pKi in experiment [2] (Table 1) of 7.46.

In turn, `Cn1cc(C(=O)Nc2cc(-c3ccnc(N4CCn5c(cc6c5CC(C)(C)C6)C4=O)c3CO)cn(C)c2=O)cn1` [Compound 110, N-[5-[2-(7,7-dimethyl-4-oxo-1,2,6,8-tetrahydrocyclopenta[3,4]pyrrolo[3,5-b]pyrazin-3-yl)-3-(hydroxymethyl)-4-pyridyl]-1-methyl-2-oxo-3-pyridyl]-1-methyl-pyrazole-4-carboxamide] showed a pIC50 in experiment [1] (Table 1, anti-IgM stimulation) below 5.59. Also, the pKi in experiment [2] (Table 1) is below 6.78.

Consider `Cn1cc(-c2ccnc(-n3ncc4cc(C(C)(C)C)cc(F)c4c3=O)c2CO)cc(NC(=O)[C@@H]2CC23CC3)c1=O` (single isomer, unassigned) [Compound 161], for which the pIC50 in experiment [1] (Table 2, anti-IgM stimulation) is 6.47. For the same molecule, in experiment [2] (Table 2), the pKi was 8.43.

In the case of `CN1CC[C@]2(C[C@@H]2C(=O)Nc2cc(-c3ccnc(-n4ncc5cc(C(C)(C)C)cc(F)c5c4=O)c3CO)cn(C)c2=O)C1` (single isomer, unassigned) [Compound 173], the pIC50 in experiment [1] (Table 2, anti-IgM stimulation) was below 5.32. In experiment [2] (Table 2), the pKi was 7.59.

The molecule `Cn1cc(-c2ccnc(N3CCn4c(cc5c4CC(C)(C)C5)C3=O)c2CO)cc(NC(=O)[C@@H]2CC23CC3)c1=O` (single isomer, unassigned) [Compound 140] had a pIC50 in experiment [1] (Table 2, anti-IgM stimulation) of 5.85. The pKi in experiment [2] (Table 2) was 8.28.

The molecule `Cn1cc(-c2cc(F)cc(N3CCn4c(cc5c4CC(C)(C)C5)C3=O)c2CO)cc(NC(=O)[C@@H]2C[C@@H]2F)c1=O` [Compound 172, (1S,2S)—N-[5-[3-(7,7-dimethyl-4-oxo-1,2,6,8-tetrahydrocyclopenta[3,4]pyrrole[3,5-b]pyrazin-3-yl)-5-fluoro-2-(hydroxymethyl)phenyl]-1-methyl-2-oxo-3-pyridyl]-2-fluoro-cyclopropanecarboxamide] gave a pIC50 in experiment [1] (Table 2, anti-IgM stimulation) of 7.77. Also, the pKi in experiment [2] (Table 2) was 9.10.

Regarding `CN1CCC2(CC1)C[C@H]2C(=O)Nc1cc(-c2ccnc(-n3ncc4cc(C(C)(C)C)cc(F)c4c3=O)c2CO)cn(C)c1=O` (single isomer, unassigned) [Compound 165], the pIC50 in experiment [1] (Table 2, anti-IgM stimulation) was below 5.32. In experiment [2] (Table 2), the pKi was 7.39.

The molecule `Cn1cc(-c2ccnc(N3CCn4c(cc5c4CC(C)(C)C5)C3=O)c2CO)cc(NC(=O)c2ccc(N3CCCC3)nc2)c1=O` [Compound 113, N-[5-[2-(7,7-dimethyl-4-oxo-1,2,6,8-tetrahydrocyclopenta[3,4]pyrrolo[3,5-b]pyrazin-3-yl)-3-(hydroxymethyl)-4-pyridyl]-1-methyl-2-oxo-3-pyridyl]-6-pyrrolidin-1-yl-pyridine-3-carboxamide] gave a pIC50 in experiment [1] (Table 1, anti-IgM stimulation) below 5.46. This molecule also showed a pKi in experiment [2] (Table 1) of 7.11.

Regarding `CC1CC1C(=O)Nc1cc(-c2ccnc(N3CCn4c(cc5c4CC(C)(C)C5)C3=O)c2CO)cn(C)c1=O` (stereo not shown) [Compound 106, N-[5-[2-(7,7-dimethyl-4-oxo-1,2,6,8-tetrahydrocyclopenta[3,4]pyrrolo[3,5-b]pyrazin-3-yl)-3-(hydroxymethyl)-4-pyridyl]-1-methyl-2-oxo-3-pyridyl]-2-methyl-cyclopropanecarboxamide], the pIC50 in experiment [1] (Table 1, anti-IgM stimulation) was 6.43. Further, in experiment [2] (Table 1), the pKi is 7.97.

As to `Cn1cc(-c2ccnc(N3CCc4cc(OC(F)F)cc(F)c4C3=O)c2CO)cc(NC(=O)C2CC2)c1=O` [Compound 144, N-[5-[2-[6-(difluoromethoxy)-8-fluoro-1-oxo-3,4-dihydroisoquinolin-2-yl]-3-(hydroxymethyl)-4-pyridyl]-1-methyl-2-oxo-3-pyridyl]cyclopropanecarboxamide], the pIC50 in experiment [1] (Table 2, anti-IgM stimulation) was below 5.27. Also, the pKi in experiment [2] (Table 2) is 6.63.

Molecule `Cn1cc(-c2ccnc(N3CCc4c(cc5n4CC(C)(C)C5)C3=O)c2CO)cc(NC(=O)C2CC2)c1=O` [Compound 137, N-[5-[2-(7,7-dimethyl-4-oxo-1,2,6,8-tetrahydropyrido[3,4-b]pyrrolizin-3-yl)-3-(hydroxymethyl)-4-pyridyl]-1-methyl-2-oxo-3-pyridyl]cyclopropanecarboxamide] had a pIC50 in experiment [1] (Table 2, anti-IgM stimulation) of 6.21. Besides, the pKi in experiment [2] (Table 2) was 7.55.
